From patent publication US8901118B2, “Compounds and methods for kinase modulation, and indications therefor” (Plexxikon Inc., priority 2010, dated 2014)
pIC50: −log10 of the molar value.

Columns and labels:
TrkA kinase = TrkA kinase (Homo sapiens, UniProt P04629); experiment: TrkA kinase biochemical activity assay (AlphaScreen); settings: 100 μM ATP; read-out: Biochemical Inhibition IC50 TrkA
In short: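 Recombinant TrkA with 30 nM biotin-(E4Y)10 and 100 μM ATP in 25 mM Hepes pH 7.5, 10 mM MnCl2, 5% DMSO, 40 min at room temperature. Phosphorylation read by AlphaScreen (streptavidin donor, PY20 acceptor beads); IC50 from signal vs compound concentration. TrkC run similarly.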

BCR-NTRK3 BaF3 cells = molecular target: T1, BCR-NTRK3 BaF3 cells (Homo sapiens, UniProt Q16288); experiment: BaF3 BCR-NTRK3 cell proliferation assay (ATPlite); assay type: cell-based; settings: read-out: Inhibition of Cell Proliferation IC50, BCR/BaF3 TrkC
T1 construct: fused on or other part: P11274 (Breakpoint cluster region protein)
T1 sequence (Q16288 whole entry, the tested form may be a part): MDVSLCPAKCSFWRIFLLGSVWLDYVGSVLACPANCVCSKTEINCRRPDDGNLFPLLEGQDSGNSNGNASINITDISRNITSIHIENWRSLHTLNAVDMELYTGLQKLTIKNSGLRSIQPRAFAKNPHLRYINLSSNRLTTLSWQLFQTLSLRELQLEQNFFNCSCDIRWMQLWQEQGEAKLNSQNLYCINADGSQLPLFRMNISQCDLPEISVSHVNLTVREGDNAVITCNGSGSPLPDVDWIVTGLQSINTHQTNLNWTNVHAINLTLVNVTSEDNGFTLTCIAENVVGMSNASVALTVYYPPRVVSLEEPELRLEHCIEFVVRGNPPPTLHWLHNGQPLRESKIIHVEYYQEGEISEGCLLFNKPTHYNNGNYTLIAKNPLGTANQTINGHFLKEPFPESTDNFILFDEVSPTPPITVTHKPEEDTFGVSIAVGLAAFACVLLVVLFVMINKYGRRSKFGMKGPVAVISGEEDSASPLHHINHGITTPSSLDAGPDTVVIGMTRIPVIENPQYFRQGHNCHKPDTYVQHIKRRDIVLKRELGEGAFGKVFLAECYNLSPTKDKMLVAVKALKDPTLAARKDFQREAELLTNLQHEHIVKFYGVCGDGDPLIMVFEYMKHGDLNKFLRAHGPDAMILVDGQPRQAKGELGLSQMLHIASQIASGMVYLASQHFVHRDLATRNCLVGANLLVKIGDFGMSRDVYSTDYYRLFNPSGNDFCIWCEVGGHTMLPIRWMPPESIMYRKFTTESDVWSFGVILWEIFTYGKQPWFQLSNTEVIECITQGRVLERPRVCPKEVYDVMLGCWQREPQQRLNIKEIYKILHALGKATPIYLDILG
In short: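 BaF3 cells expressing BCR fusions were plated at 10,000 cells/well without IL-3, and MV-4-11 cells at 25,000 cells/well. Cells were treated the next day with an 8-point 1:3 dilution series (top 10 μM final) and incubated 3 days at 37 °C. ATPlite luminescence gave cell number, from which IC50 was fitted.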

Chain of TrkA kinase (P04629 33-796): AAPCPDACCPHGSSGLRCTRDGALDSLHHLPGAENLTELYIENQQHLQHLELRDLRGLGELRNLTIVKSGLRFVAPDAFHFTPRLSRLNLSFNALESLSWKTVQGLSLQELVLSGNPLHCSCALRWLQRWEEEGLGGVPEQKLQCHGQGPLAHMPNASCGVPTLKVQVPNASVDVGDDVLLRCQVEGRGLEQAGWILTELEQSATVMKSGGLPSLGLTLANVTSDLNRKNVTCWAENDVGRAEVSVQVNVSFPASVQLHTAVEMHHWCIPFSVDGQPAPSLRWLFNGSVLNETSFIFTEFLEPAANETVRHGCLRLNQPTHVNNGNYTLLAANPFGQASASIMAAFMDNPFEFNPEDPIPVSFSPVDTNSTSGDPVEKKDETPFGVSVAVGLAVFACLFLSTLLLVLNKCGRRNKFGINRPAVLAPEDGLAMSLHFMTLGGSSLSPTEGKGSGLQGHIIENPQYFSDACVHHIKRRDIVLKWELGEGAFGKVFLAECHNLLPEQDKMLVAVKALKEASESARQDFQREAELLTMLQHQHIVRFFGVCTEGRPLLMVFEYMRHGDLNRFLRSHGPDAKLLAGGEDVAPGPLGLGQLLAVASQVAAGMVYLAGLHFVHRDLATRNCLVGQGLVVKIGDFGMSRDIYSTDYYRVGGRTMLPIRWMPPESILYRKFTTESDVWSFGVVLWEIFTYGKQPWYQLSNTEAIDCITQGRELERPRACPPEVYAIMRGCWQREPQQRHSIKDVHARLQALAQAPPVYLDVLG

Compound	pIC50 (TrkA kinase)	pIC50 (BCR-NTRK3 BaF3 cells)
COc1ccc(Nc2ccc(C(=O)c3c[nH]c4ncc(C)cc34)c(F)n2)cn1 [Compound P-3040, [2-Fluoro-6-(6-methoxy-pyridin-3-ylamino)-pyridin-3-yl]-(5-methyl-1H-pyrrolo[2,3-b]pyridin-3-yl)-methanone]	> 8.00	> 8.00
Cc1cnc2[nH]cc(Cc3ccc(Nc4ccc(C)nc4)nc3F)c2c1 [Compound P-3041, [6-Fluoro-5-(5-methyl-1H-pyrrolo[2,3-b]pyridin-3-ylmethyl)-pyridin-2-yl]-(6-methyl-pyridin-3-yl)-amine]	> 6.00	> 7.00
Cc1ccc(Nc2ccc(Cc3c[nH]c4ncc(Cl)cc34)c(F)n2)cn1 [Compound P-3042, [5-(5-Chloro-1H-pyrrolo[2,3-b]pyridin-3-ylmethyl)-6-fluoro-pyridin-2-yl]-(6-methyl-pyridin-3-yl)-amine]	> 7.00	> 7.00
Cc1cnc2[nH]cc(C(=O)c3ccc(Nc4ccc(C)nc4)nc3F)c2c1 [Compound P-3043, [2-Fluoro-6-(6-methyl-pyridin-3-ylamino)-pyridin-3-yl]-(5-methyl-1H-pyrrolo[2,3-b]pyridin-3-yl)-methanone]	> 7.00	> 7.00
Cc1ccc(Nc2ccc(C(=O)c3c[nH]c4ncc(Cl)cc34)c(F)n2)cn1 [Compound P-3044, (5-Chloro-1H-pyrrolo[2,3-b]pyridin-3-yl)-[2-fluoro-6-(6-methyl-pyridin-3-ylamino)-pyridin-3-yl]-methanone]	> 7.00	> 7.00
CCOc1ccc(Nc2ccc(C(=O)c3c[nH]c4ncc(C)cc34)c(F)n2)cn1 [Compound P-3045, [6-(6-ethoxy-pyridin-3-ylamino)-2-fluoro-pyridin-3-yl]-(5-methyl-1H-pyrrolo[2,3-b]pyridin-3-yl)-methanone]	> 8.00	> 7.00
O=C(c1ccc(Nc2ccc(C3CC3)nc2)nc1F)c1c[nH]c2ncccc12 [Compound P-3052, [6-(6-Cyclopropyl-pyridin-3-ylamino)-2-fluoro-pyridin-3-yl]-(1H-pyrrolo[2,3-b]pyridin-3-yl)-methanone]	> 8.00	> 8.00
Fc1nc(Nc2ccc(C3CC3)nc2)ccc1Cc1c[nH]c2ncccc12 [Compound P-3053, (6-Cyclopropyl-pyridin-3-yl)-[6-fluoro-5-(1H-pyrrolo[2,3-b]pyridin-3-ylmethyl)-pyridin-2-yl]-amine]	> 7.00	> 8.00
COc1ccc(Nc2ccc(Cc3c[nH]c4ncnc(OC)c34)c(F)n2)cn1 [Compound P-4001, [6-Fluoro-5-(4-methoxy-7H-pyrrolo[2,3-d]pyrimidin-5-ylmethyl)-pyridin-2-yl]-(6-methoxy-pyridin-3-yl)-amine]	> 7.00	> 8.00
COc1ccc(Nc2ccc(Cc3c[nH]c4ncnc(C)c34)c(F)n2)cn1 [Compound P-4002, [6-Fluoro-5-(4-methyl-7H-pyrrolo[2,3-d]pyrimidin-5-ylmethyl)-pyridin-2-yl]-(6-methoxy-pyridin-3-yl)-amine]	> 7.00	> 7.00
COc1ncnc2[nH]cc(Cc3ccc(Nc4ccc(Cl)nc4)nc3F)c12 [Compound P-4003, (6-Chloro-pyridin-3-yl)-[6-fluoro-5-(4-methoxy-7H-pyrrolo[2,3-d]pyrimidin-5-ylmethyl)-pyridin-2-yl]-amine]	> 6.00	> 7.00
COc1ncnc2[nH]cc(Cc3ccc(Nc4ccc(C5CC5)nc4)nc3F)c12 [Compound P-4004, (6-Cyclopropyl-pyridin-3-yl)-[6-fluoro-5-(4-methoxy-7H-pyrrolo[2,3-d]pyrimidin-5-ylmethyl)-pyridin-2-yl]-amine]	> 7.00	> 8.00
CCOc1ccc(Nc2ccc(Cc3c[nH]c4ncnc(OC)c34)c(F)n2)cn1 [Compound P-4005, (6-Ethoxy-pyridin-3-yl)-[6-fluoro-5-(4-methoxy-7H-pyrrolo[2,3-d]pyrimidin-5-ylmethyl)-pyridin-2-yl]-amine]	> 7.00	> 8.00
CCOc1ccc(Nc2ccc(Cc3c[nH]c4ncnc(C)c34)c(F)n2)cn1 [Compound P-4006, (6-Ethoxy-pyridin-3-yl)-[6-fluoro-5-(4-methyl-7H-pyrrolo[2,3-d]pyrimidin-5-ylmethyl)-pyridin-2-yl]-amine]	> 7.00	> 8.00
CCc1ccc(Nc2ccc(Cc3c[nH]c4ncnc(OC)c34)c(F)n2)cn1 [Compound P-4007, (6-Ethyl-pyridin-3-yl)-[6-fluoro-5-(4-methoxy-7H-pyrrolo[2,3-d]pyrimidin-5-ylmethyl)-pyridin-2-yl]-amine]	> 8.00	> 8.00
CCOc1ccc(Nc2ccc(Cc3c[nH]c4ncnc(OCCOC)c34)c(F)n2)cn1 [Compound P-4008, (6-Ethoxy-pyridin-3-yl)-{6-fluoro-5-[4-(2-methoxy-ethoxy)-7H-pyrrolo[2,3-d]pyrimidin-5-ylmethyl]-pyridin-2-yl}-amine]	> 8.00	> 7.00

Compound	pIC50 (TrkA kinase)	pIC50 (BCR-NTRK3 BaF3 cells)
CCc1ccc(Nc2ccc(Cc3c[nH]c4ncnc(C)c34)c(F)n2)cn1 [Compound P-4009, (6-Ethyl-pyridin-3-yl)-[6-fluoro-5-(4-methyl-7H-pyrrolo[2,3-d]pyrimidin-5-ylmethyl)-pyridin-2-yl]-amine]	> 8.00	> 8.00
COc1ncnc2[nH]cc(Cc3ccc(Nc4ccc(C)nc4)nc3F)c12 [Compound P-4010, [6-Fluoro-5-(4-methoxy-7H-pyrrolo[2,3-d]pyrimidin-5-ylmethyl)-pyridin-2-yl]-(6-methyl-pyridin-3-yl)-amine]	> 6.00	> 7.00
CCn1cc(Nc2ccc(Cc3c[nH]c4ncnc(OC)c34)c(F)n2)cn1 [Compound P-4011, (1-Ethyl-1H-pyrazol-4-yl)-[6-fluoro-5-(4-methoxy-7H-pyrrolo[2,3-d]pyrimidin-5-ylmethyl)-pyridin-2-yl]-amine]	> 6.00	> 6.00
CCOc1ncnc2[nH]cc(Cc3ccc(Nc4cnn(CC)c4)nc3F)c12 [Compound P-4012, [5-(4-Ethoxy-7H-pyrrolo[2,3-d]pyrimidin-5-ylmethyl)-6-fluoro-pyridin-2-yl]-(1-ethyl-1H-pyrazol-4-yl)-amine]	> 7.00	> 7.00
CCn1cc(Nc2ccc(Cc3c[nH]c4ncnc(C)c34)c(F)n2)cn1 [Compound P-4013, (1-Ethyl-1H-pyrazol-4-yl)-[6-fluoro-5-(4-methyl-7H-pyrrolo[2,3-d]pyrimidin-5-ylmethyl)-pyridin-2-yl]-amine]	> 6.00	> 6.00
CCn1cc(Nc2ccc(Cc3c[nH]c4ncnc(OCCOC)c34)c(F)n2)cn1 [Compound P-4014, (1-Ethyl-1H-pyrazol-4-yl)-{6-fluoro-5-[4-(2-methoxy-ethoxy)-7H-pyrrolo[2,3-d]pyrimidin-5-ylmethyl]-pyridin-2-yl}-amine]	< 6.00	> 6.00
COCCOc1ncnc2[nH]cc(Cc3ccc(Nc4ccc(C)nc4)nc3F)c12 [Compound P-4015, {6-Fluoro-5-[4-(2-methoxy-ethoxy)-7H-pyrrolo[2,3-d]pyrimidin-5-ylmethyl]-pyridin-2-yl}-(6-methyl-pyridin-3-yl)-amine]	< 6.00	> 7.00
CCc1ccc(Nc2ccc(Cc3c[nH]c4ncnc(OCCOC)c34)c(F)n2)cn1 [Compound P-4016, (6-Ethyl-pyridin-3-yl)-{6-fluoro-5-[4-(2-methoxy-ethoxy)-7H-pyrrolo[2,3-d]pyrimidin-5-ylmethyl]-pyridin-2-yl}-amine]	> 8.00	> 8.00
CCOc1ncnc2[nH]cc(Cc3ccc(Nc4ccc(C)nc4)nc3F)c12 [Compound P-4017, [5-(4-Ethoxy-7H-pyrrolo[2,3-d]pyrimidin-5-ylmethyl)-6-fluoro-pyridin-2-yl]-(6-methyl-pyridin-3-yl)-amine]	> 7.00	> 7.00
CCOc1ncnc2[nH]cc(Cc3ccc(Nc4ccc(OC)nc4)nc3F)c12 [Compound P-4018, [5-(4-Ethoxy-7H-pyrrolo[2,3-d]pyrimidin-5-ylmethyl)-6-fluoro-pyridin-2-yl]-(6-methoxy-pyridin-3-yl)-amine]	> 7.00	> 8.00
COCCOc1ncnc2[nH]cc(Cc3ccc(Nc4ccc(OC)nc4)nc3F)c12 [Compound P-4019, {6-Fluoro-5-[4-(2-methoxy-ethoxy)-7H-pyrrolo[2,3-d]pyrimidin-5-ylmethyl]-pyridin-2-yl}-(6-methoxy-pyridin-3-yl)-amine]	> 7.00	> 7.00
CCOc1ncnc2[nH]cc(Cc3ccc(Nc4ccc(Br)nc4)nc3F)c12 [Compound P-4020, (6-Bromo-pyridin-3-yl)-[5-(4-ethoxy-7H-pyrrolo[2,3-d]pyrimidin-5-ylmethyl)-6-fluoro-pyridin-2-yl]-amine]	> 8.00	> 7.00
CCOc1ncnc2[nH]cc(Cc3ccc(Nc4cccnc4)nc3F)c12 [Compound P-4021, [5-(4-Ethoxy-7H-pyrrolo[2,3-d]pyrimidin-5-ylmethyl)-6-fluoro-pyridin-2-yl]-pyridin-3-yl-amine]	> 6.00	> 6.00
COc1ccc(Nc2ccc(C(=O)c3c[nH]c4ncnc(C5CC5)c34)c(F)n2)cn1 [Compound P-4022, (4-cyclopropyl-7H-pyrrolo[2,3-d]pyrimidin-5-yl)-[2-fluoro-6-(6-methoxy-pyridin-3-ylamino)-pyridin-3-yl]-methanone]	> 8.00	> 8.00
COc1ccc(Nc2ccc(Cc3c[nH]c4ncnc(C5CC5)c34)c(F)n2)cn1 [Compound P-4023, [5-(4-cyclopropyl-7H-pyrrolo[2,3-d]pyrimidin-5-ylmethyl)-6-fluoro-pyridin-2-yl]-(6-methoxy-pyridin-3-yl)-amine]	> 7.00	> 8.00
